# Measurements taken from patent US11292803B2, “Bioreducible N-oxide-based probes for imaging of hypoxia” (THE BOARD OF TRUSTEES OF THE UNIVERSITY OF ILLINOIS, priority 2018, dated 2022).
# What was measured:
# [1] = Response to metal ions and reactive oxygen, nitrogen and sulfur species; conditions: 2 h, 37° C., phosphate buffer pH 7.4
# Experimental: FIG. 9. Ratiometric fluorescent turn-on response of HyP-1 (2 μM) in the presence of various metal ions in 0.1 M potassium phosphate buffer (pH 7.4, 0.1% v/v CrEL) after 2 h incubation at 37° C. Concentrations used were 2 mM for Na^+, Mg^2+, K^+ and Ca^2+, and 50 μM for all other metal ions.
# FIG. 10. Ratiometric fluorescence turn-on response of HyP-1 (2 μM) in the presence of various reactive oxygen, nitrogen and sulfur species (100 μM) in 0.1 M potassium phosphate buffer (pH 7.4, 0.1% v/v CrEL) after 2 h incubation at 37° C.
# In addition to Fe(II), the response of HyP-1 to a variety of alkali, alkaline earth and transition metals was also determined. […] To further evaluate the stability of HyP-1, a 10 μM solution of the probe was exposed to ambient light and temperature for up to 5 days. Additionally, a 10 μM solution of HyP-1 supplemented with human plasma was incubated at 37° C. for 3 hours. […] As mentioned previously, a major limitation of 2-nitroimidazole-based hypoxia probes is their susceptibility to oxygen-independent reduction via two-electron processes, such as by bacterial nitroreductases. […] Finally, the photostability of both HyP-1 and red-HyP-1 was evaluated via continuous PA image acquisition at 770 nm over the course of 1 hour.
# 4T1 cells = assay: Ratiometric fluorescence of cells, IVIS Spectrum; assay type: cell-based, murine; conditions: 4T1 cells, 5 μM HyP-1, 4 hours, IVIS Spectrum
# Experimental: Ratiometric fluorescence imaging was also performed on 4T1 cells cultured in 6-well plates using an IVIS Spectrum imaging system. Cells were stained with a 5 μM solution of HyP-1 and incubated in either normoxic or hypoxic conditions for 4 hours (FIG. 5c). […] To further verify the in vitro results and determine the cellular factors responsible for HyP-1 reduction, cells were also stained with HyP-1 solutions containing either BIPY or DPI at multiple concentrations and incubated under hypoxic conditions.
# Authenticated 4T1 cells were purchased from ATCC. Cells were grown in RPMI 1640 medium supplemented with 10% fetal bovine serum. Cells were cultured at 37° C. in 5% CO2 and 20% 02 for normoxic conditions. Hypoxic cell culture was performed by incubating cells in a sealed container with a Mitsubishi AnaeroPack™ anaerobic gas generator. Hypoxic conditions were verified with the use of a Mitsubishi RT Anaero-Indicator.
# For cellular imaging using the IVIS Spectrum imaging system, cells were plated in a 6-well plate at an initial density of 1.7×10^4 cells/mL and allowed to grow until 60-80% confluent (approximately 3 days). Media was removed and cells were washed with PBS. A […] solution of HyP-1 in serum-free medium was added, and cells were incubated under normoxic or hypoxic conditions for 4 hours. For BIPY and DPI experiments, the staining solution was supplemented with the compound at the appropriate concentration, and ratiometric turn-on was reported relative to a vehicle control. Images were obtained using excitation and emission filter sets of 675/720 nm and 745/800 nm. Regions of interest (ROIs) were drawn around cell-containing wells, and ratiometric signal was calculated by determining the ratio of radiant efficiency corresponding to 800 nm and 720 nm emissions.
# 4T1 tumour allografts = assay: In vivo PA imaging of hypoxic tumour model; design: species or system BALB/c mice; conditions: tail vein injection 0.3 mg/kg; 770 nm
# Experimental: Next, attention was turned to the application of HyP-1 for hypoxia detection using PA imaging. HyP-1 (50 μL, 0.3 mg/kg) was administered to tumour-bearing mice intravenously via tail vein injection, and PA images of both the tumour-bearing and control flanks were acquired at 1, 3 and 5 hours following injection. […] The 3D-reconstructions of the PA images enabled visualization of specific areas within the tumour where signal was highest, a significant improvement compared to the minimally resolved signal obtained using fluorescence imaging (FIG. 6b). It was hypothesized that these areas of high intensity correlate with the highest concentrations of red-HyP-1, and therefore with regions of most severe hypoxia.
# All in vivo imaging experiments were performed with the approval of the Institutional Animal Care and Use Committee of the University of Illinois at Urbana-Champaign, following the principles outlined by the American Physiological Society on research animal use. […]
# Prior to imaging, hair was removed from the lower body half by shaving and treating with a topical hair removal cream. […] Data was analysed using OsiriX software. […] ROIs of equal area were drawn to include all visible signal in the image, and mean PA signal in each ROI was recorded. Change in PA signal was calculated by subtracting signal from images taken prior to injection from those at given time points.
# ischemic hindlimb tissue = assay: In vivo fluorescence imaging of hindlimb ischemia model; design: species or system BALB/c mice; conditions: intramuscular 50 μL, 50 μM; over 1 hour
# Experimental: To visualize the response of HyP-1 in a model of rapidly developing hypoxia, a murine hindlimb ischemia model of peripheral artery disease was employed. Ischemia was induced in the right hindlimb of BALB/c mice via ligation of the femoral artery. […] After a 1-hour recovery period, HyP-1 (50 μL, 50 μM) was administered via intramuscular injection into both hindlimbs of the mouse. To visualize the time-dependent response of HyP-1 in the ischemic and non-ischemic tissue, ratiometric fluorescence imaging was performed over the course of 1 hour immediately following injection. […]
# All in vivo imaging experiments were performed with the approval of the Institutional Animal Care and Use Committee of the University of Illinois at Urbana-Champaign, following the principles outlined by the American Physiological Society on research animal use. […] Animals that underwent unsuccessful surgery as determined by laser Doppler perfusion imaging were excluded from analysis.
# Images were obtained using epi-fluorescence with excitation filters of 675 and 745 and corresponding emission filters of 720 and 800, respectively. […] ROIs of equal area were drawn around signals, and the total radiant efficiency in each ROI was determined. Ratiometric signal was calculated by determining the ratio of radiant efficiency corresponding to 800 nm and 720 nm emissions.
smiles,measurement,setting,value
"CC[N+]([O-])(CC)c1ccc(-c2cc(-c3ccccc3)c3n2[B-](F)(F)[N+]2=C(c4ccc(OC)cc4)C=C(c4ccccc4)C2=N3)cc1 [HyP-1, 4-(5,5-difluoro-7-(4-methoxyphenyl)-1,9-diphenyl-5H-5λ^4,6λ^4-dipyrrolo[1,2-c:2′,1′-f][1,3,5,2]triazaborinin-3-yl)-N,N-diethylaniline oxide]","turn-on response to alkali, alkaline earth and transition metals",[1],No significant turn-on
same,"ratiometric response, hypoxic versus normoxic wells",4T1 cells,2.5 fold
same,PA signal increase in control flank,4T1 tumour allografts,no increase
same,mean PA signal increase in tumour tissue,4T1 tumour allografts,20.5 a.u.
same,"ratiometric signal, ischemic tissue versus control",ischemic hindlimb tissue,3 fold
